Patent publication US10377741B2, “Substituted heteroaryl aldehyde compounds and methods for their use in increasing tissue oxygenation” (Global Blood Therapeutics, Inc., priority 2011, dated 2019)

These compounds were tested against T1, purified Hemoglobin S (HbS) (Homo sapiens, UniProt P68871+P69905, E7V) (assay: Modulation of hemoglobin oxygen affinity: oxygen equilibrium curves (HEMOX) in purified HbS). Details: compound at 30 μM; 25 μM purified HbS, 45 min at 37° C.
T1 construct: HbS was purified by a modified procedure; from tissue; host or cells: blood of homozygous sickle cell patients (CHORI); for the polymerization assay purified by the CRO VIRUSYS
Assay type: biochemical, human (homozygous sickle cell patients)
Protocol: Oxygen equilibrium curves (OEC) in purified Hemoglobin S (HbS) were measured by the change in p50, the partial pressure of oxygen at which the heme binding sites in the HbS sample are 50% saturated with oxygen. HbS was purified by a modified procedure (Antonini and Brunori, 1971; Heomoglobin and Myoglobin in their Reactions with Ligands; North Holland Publishing Company; Amsterdam, London) from blood obtained from homozygous sickle cell patients though the Hemoglobinopathy Center at Children's Hospital Oakland Research Institute (CHORI) with Institutional Review Board approval. Oxygen equilibrium curves were carried out with a HEMOX analyzer, (TCS Scientific, New Hope, Pa.). Five hundred μL of 250 μM purified HbS were diluted into 4.5 mL of HEMOX buffer (30 mM TES, 130 mM NaCl, 5 mM KCl, pH=7.4) resulting in a final hemoglobin concentration of 25 μM. The compounds were added at the final desired concentrations. The mixture was incubated for 45 min at 37° C. and then transferred to the Hemox sample chamber. The samples were saturated with oxygen by flushing with compressed air for 10 minutes. The samples were then flushed with pure nitrogen and the absorbance of deoxy-Hb was recorded as a function of the solution pO2. The oxygen equilibrium data was then fit to the Hill Model to obtain values for p50. The deoxygenation curves for both HbS alone (control) and HbS in the presence of compound were collected with the TCS software. The p50 for purified Hbs was typically 13.8±1.6. Delta p50 values were obtained from the p50 value for control minus the p50 value for HbS treated with compound divided by the p50 value for the control.
The compounds of Table 1 that were where tested in the assay above were all found to have positive delta p50 values. Delta p50% is calculated from [[p50(HbS) −p50(HbS treated with compound)]/p50(HbS)]×100. Table 2 below lists the delta p50% values where + indicates a delta p50% of between 0 and 29, ++ indicates a delta p50% of between 30 and 50, and +++ indicates a delta p50% of 50 or greater. Unless noted otherwise, the compounds in Table 2 were tested at 30 μM.

Structure (SMILES) | delta p50%
COc1cc(C=O)c(OCc2cncc(-c3ccn(C)n3)c2)cn1 [Compound 75, 2-methoxy-5-((5-(1-methyl-1H-pyrazol-3-yl)pyridin-3-yl)methoxy)isonicotinaldehyde] | + (a delta p50% of between 0 and 29)
COc1cc(C=O)c(OCc2cncc(-c3cn[nH]c3)c2)cn1 [Compound 76, 5-((5-(1H-pyrazol-4-yl)pyridin-3-yl)methoxy)-2-methoxyisonicotinaldehyde] | + (a delta p50% of between 0 and 29)
COc1cc(C=O)c(OCc2cncc(-c3cnn(C)c3)c2)cn1 [Compound 77, 2-methoxy-5-((5-(1-methyl-1H-pyrazol-4-yl)pyridin-3-yl)methoxy)isonicotinaldehyde] | + (a delta p50% of between 0 and 29)
COC(=O)c1cncc(COc2cnc(OC)cc2C=O)c1 [Compound 78, methyl 5-((4-formyl-6-methoxypyridin-3-yloxy)methyl)nicotinate] | + (a delta p50% of between 0 and 29)
Cc1ccc(OCc2cnc3ccccc3c2)c(C=O)n1 [Compound 81, 6-methyl-3-(quinolin-3-ylmethoxy)picolinaldehyde] | + (a delta p50% of between 0 and 29)
COc1cc(C=O)c(OCc2ccc3ccncc3c2)cn1 [Compound 82, 5-(isoquinolin-7-ylmethoxy)-2-methoxyisonicotinaldehyde] | + (a delta p50% of between 0 and 29)
Cc1ccc(OCc2ccc3ccncc3c2)c(C=O)n1 [Compound 83, 3-(isoquinolin-7-ylmethoxy)-6-methylpicolinaldehyde] | + (a delta p50% of between 0 and 29)
Cc1ccc(OCc2cccc3c2cnn3C)c(C=O)n1 [Compound 85, 6-methyl-3-((1-methyl-1H-indazol-4-yl)methoxy)picolinaldehyde] | + (a delta p50% of between 0 and 29)
COc1cc(C=O)c(OCc2cccc3[nH]ncc23)cn1 [Compound 87, 5-((1H-indazol-4-yl)methoxy)-2-methoxyisonicotinaldehyde] | + (a delta p50% of between 0 and 29)
Cc1ccc(OCc2cccc3[nH]ncc23)c(C=O)n1 [Compound 88, 3-((1H-indazol-4-yl)methoxy)-6-methylpicolinaldehyde] | + (a delta p50% of between 0 and 29)
COc1ccc(OCc2ccc3cnn(C)c3c2)c(C=O)n1 [Compound 89, 6-methoxy-3-((1-methyl-1H-indazol-6-yl)methoxy)picolinaldehyde] | + (a delta p50% of between 0 and 29)
COc1cc(C=O)c(OCc2cccc3cnn(C)c23)cn1 [Compound 90, 2-methoxy-5-((1-methyl-1H-indazol-7-yl)methoxy)isonicotinaldehyde] | + (a delta p50% of between 0 and 29)
Cc1ccc(OCc2ccc3ccccc3n2)c(C=O)n1 [Compound 94, 6-methyl-3-(quinolin-2-ylmethoxy)picolinaldehyde] | + (a delta p50% of between 0 and 29)
COc1cc(C=O)c(OCc2cnccc2-c2cn[nH]c2)cn1 [Compound 95, 5-((4-(1H-pyrazol-4-yl)pyridin-3-yl)methoxy)-2-methoxyisonicotinaldehyde] | + (a delta p50% of between 0 and 29)
COc1cc(C=O)c(OCc2cc(Br)cn3ccnc23)cn1 [Compound 96, 5-((6-bromoimidazo[1,2-a]pyridin-8-yl)methoxy)-2-methoxyisonicotinaldehyde] | + (a delta p50% of between 0 and 29)
COc1cc(C=O)c(OCc2cc(C#N)cn3ccnc23)cn1 [Compound 97, 8-((4-formyl-6-methoxypyridin-3-yloxy)methyl)imidazo[1,2-a]pyridine-6-carbonitrile] | + (a delta p50% of between 0 and 29)
COc1cc(C=O)c(OCc2cncc(C#N)c2)cn1 [Compound 98, 5-((4-formyl-6-methoxypyridin-3-yloxy)methyl)nicotinonitrile] | + (a delta p50% of between 0 and 29)
Cc1ccc(OCc2cccc3ocnc23)c(C=O)n1 [Compound 99, 3-(benzo[d]oxazol-4-ylmethoxy)-6-methylpicolinaldehyde] | + (a delta p50% of between 0 and 29)
COc1cc(C=O)c(OCc2cc(C(N)=O)cn3ccnc23)cn1 [Compound 100, 8-((4-formyl-6-methoxypyridin-3-yloxy)methyl)imidazo[1,2-a]pyridine-6-carboxamide] | + (a delta p50% of between 0 and 29)

Structure (SMILES) | delta p50%
COc1cc(C=O)c(OCc2cncc(C(N)=O)c2)cn1 [Compound 101, 5-((4-formyl-6-methoxypyridin-3-yloxy)methyl)nicotinamide] | + (a delta p50% of between 0 and 29)
COc1cc(C=O)c(OCc2cc(-c3cn[nH]c3)cn3ccnc23)cn1 [Compound 102, 5-((6-(1H-pyrazol-4-yl)imidazo[1,2-a]pyridin-8-yl)methoxy)-2-methoxyisonicotinaldehyde] | + (a delta p50% of between 0 and 29)
COc1cc(C=O)c(OCc2cc(-c3ccn[nH]3)cn3ccnc23)cn1 [Compound 104, 5-((6-(1H-pyrazol-5-yl)imidazo[1,2-a]pyridin-8-yl)methoxy)-2-methoxyisonicotinaldehyde] | + (a delta p50% of between 0 and 29)
COc1cc(C=O)c(OCc2ccnc3cccnc23)cn1 [Compound 105, 5-((1,5-naphthyridin-4-yl)methoxy)-2-methoxyisonicotinaldehyde] | + (a delta p50% of between 0 and 29)
COc1cc(C=O)c(OCc2ccc3[nH]ncc3c2)cn1 [Compound 107, 5-((1H-indazol-5-yl)methoxy)-2-methoxyisonicotinaldehyde] | + (a delta p50% of between 0 and 29)
Cc1ccc(OCc2ccc3c(c2)c(Cl)nn3C)c(C=O)n1 [Compound 109, 3-((3-chloro-1-methyl-1H-indazol-5-yl)methoxy)-6-methylpicolinaldehyde] | + (a delta p50% of between 0 and 29)
COc1cc(C=O)c(OCc2ccc3c(cnn3C)c2)cn1 [Compound 110, 2-methoxy-5-((1-methyl-1H-indazol-5-yl)methoxy)isonicotinaldehyde] | + (a delta p50% of between 0 and 29)
COc1cc(C=O)c(OCc2ccc3c(c2)c(Cl)nn3C)cn1 [Compound 111] | + (a delta p50% of between 0 and 29)
COc1cc(C=O)c(NC(=O)c2cccn3ccnc23)cn1 [Compound 112, N-(4-formyl-6-methoxypyridin-3-yl)imidazo[1,2-a]pyridine-8-carboxamide] | + (a delta p50% of between 0 and 29)
Cc1ccc(OCc2ccnc3c2c(C)nn3C)c(C=O)n1 [Compound 113, 3-((1,3-dimethyl-1H-pyrazolo[3,4-b]pyridin-4-yl)methoxy)-6-methylpicolinaldehyde] | + (a delta p50% of between 0 and 29)
COc1cc(C=O)c(OCc2ccnc3c2c(C)nn3C)cn1 [Compound 114, 5-((1,3-dimethyl-1H-pyrazolo[3,4-b]pyridin-4-yl)methoxy)-2-methoxyisonicotinaldehyde] | + (a delta p50% of between 0 and 29)
COc1cc(C=O)c(OCc2cc3ccccc3nc2Cl)cn1 [Compound 116, 5-((2-chloroquinolin-3-yl)methoxy)-2-methoxyisonicotinaldehyde] | + (a delta p50% of between 0 and 29)
COc1cc(C=O)c(OCc2cc3ccccc3nc2-c2ccn[nH]2)cn1 [Compound 117] | + (a delta p50% of between 0 and 29)
COc1cc(C=O)c(OCc2cnc3ccccc3n2)cn1 [Compound 118, 2-methoxy-5-(quinoxalin-2-ylmethoxy)isonicotinaldehyde] | + (a delta p50% of between 0 and 29)
Cc1ccc(OCc2cnc3c(cnn3C)c2)c(C=O)n1 [Compound 121, 6-methyl-3-((1-methyl-1H-pyrazolo[3,4-b]pyridin-5-yl)methoxy)picolinaldehyde] | + (a delta p50% of between 0 and 29)
COc1cc(C=O)c(OCc2cnc3c(cnn3C)c2)cn1 [Compound 122, 2-methoxy-5-((1-methyl-1H-pyrazolo[3,4-b]pyridin-5-yl)methoxy)isonicotinaldehyde] | + (a delta p50% of between 0 and 29)
COc1cc(C=O)c(OCc2c(-c3cc[nH]n3)ccn3cncc23)cn1 [Compound 123, 5-((7-(1H-pyrazol-3-yl)imidazo[1,5-a]pyridin-8-yl)methoxy)-2-methoxyisonicotinaldehyde] | + (a delta p50% of between 0 and 29)
COc1cc(C=O)c(OCc2cncc(-c3nn[nH]n3)c2)cn1 [Compound 124, 5-((5-(2H-tetrazol-5-yl)pyridin-3-yl)methoxy)-2-methoxyisonicotinaldehyde] | + (a delta p50% of between 0 and 29)
